{"source": "patent US7671052B2", "about": "(priority 2004, dated 2010)", "key": {"Male ICR mice": {"system": "Male ICR mice", "test": "Catalepsy ring test", "assay_type": "in vivo, mouse", "conditions": "for % catalepsy @ 30 mg/kg: 30 mg/kg i.p.; for % catalepsy @ 30 mg/kg / % catalepsy @ 100 mg/kg: 60 or 90 minutes after dosing; for % catalepsy @ 100 mg/kg: 100 mg/kg i.p.", "method": "The apparatus consisted of a 5.5 centimeter ring attached to a ring stand at a height of 16 centimeters. Male ICR mice (20-25 g) were placed on the ring 60 or 90 minutes after dosing (i.p.) with test compounds or vehicle. Normal behavior for a mouse would be to walk around and investigate the ring. Catalepsy was shown when the mouse remained motionless. The amount of time (in seconds, in a 5 minute test session) the mouse spent motionless was determined.\nMice that fell or jumped were allowed 5 “escapes”. If 5 “escapes” happened before 2.5 minutes into the test, the data were disregarded. The immobility index (% catalepsy) was determined by the amount of time spent immobile divided by the length of the test (P. Little et al. Pharmac. Biochem. & Behavior 1989, 32, 661-666). Since the CB1 receptor is thought to be responsible for psychoactivity, the catalepsy ring test is an excellent in vivo screen for CB1 activity."}, "hCB2 [1]": {"molecular_target": "T1, hCB2 (Homo sapiens, UniProt P34972)", "T1 construct": "expressed in transfected cells; host or cells: CHO-K1 (Chinese hamster ovary), stably transfected; membrane preparation", "T1 sequence (P34972 whole entry)": "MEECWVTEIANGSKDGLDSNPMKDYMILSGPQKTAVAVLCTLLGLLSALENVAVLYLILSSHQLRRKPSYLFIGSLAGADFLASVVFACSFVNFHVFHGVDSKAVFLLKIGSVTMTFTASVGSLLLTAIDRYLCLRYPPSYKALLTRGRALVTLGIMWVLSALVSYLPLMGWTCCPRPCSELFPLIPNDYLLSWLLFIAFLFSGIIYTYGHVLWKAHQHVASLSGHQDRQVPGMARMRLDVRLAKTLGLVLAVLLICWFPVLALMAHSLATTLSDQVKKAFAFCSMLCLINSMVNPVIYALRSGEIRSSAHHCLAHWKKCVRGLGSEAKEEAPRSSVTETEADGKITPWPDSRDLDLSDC", "test": "hCB2-mediated stimulation of [35S]GTPγS binding", "assay_type": "biochemical", "conditions": "read-out: in vitro CB2 receptor agonist potency (EC50)", "procedure": "hCB2-mediated [^35S]GTPγS binding was measured in the same way except the assay mixture contained 10 mM GDP and the incubation time was 6 hours. […] After incubation at 30° C. for 2 hours, the plates were centrifuged at 800×g at 4° C. for 5 min and the radioactivity bound to the membrane was determined by scintillation spectrometry using the Topcount (Perkin Elmer).\nEC50 values in functional assays were also derived from automated nonlinear regression analysis of sigmoidal titration curves using the three-parameter modification of the four-parameter equation."}, "hCB2 [2]": {"molecular_target": "T1, hCB2", "test": "Inhibition of [3H]CP55940 binding to hCB2 receptor membranes"}, "hCB1 [3]": {"molecular_target": "T2, hCB1 (Homo sapiens, UniProt P21554)", "T2 construct": "expressed in transfected cells; host or cells: CHO-K1 (Chinese hamster ovary), stably transfected; membrane preparation", "T2 sequence (P21554 whole entry)": "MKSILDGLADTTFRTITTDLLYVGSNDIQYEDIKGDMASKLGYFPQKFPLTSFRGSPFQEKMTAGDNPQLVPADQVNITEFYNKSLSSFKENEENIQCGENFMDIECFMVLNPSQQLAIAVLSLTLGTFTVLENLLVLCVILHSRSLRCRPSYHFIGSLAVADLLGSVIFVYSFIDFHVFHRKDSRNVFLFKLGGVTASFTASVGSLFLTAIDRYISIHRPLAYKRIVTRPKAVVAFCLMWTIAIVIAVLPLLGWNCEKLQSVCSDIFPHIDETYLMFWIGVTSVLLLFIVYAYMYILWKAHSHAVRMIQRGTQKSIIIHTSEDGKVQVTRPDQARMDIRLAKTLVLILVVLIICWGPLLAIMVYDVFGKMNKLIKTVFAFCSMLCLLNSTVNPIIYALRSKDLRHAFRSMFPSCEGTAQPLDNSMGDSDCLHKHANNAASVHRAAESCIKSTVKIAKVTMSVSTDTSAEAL", "test": "Inhibition of [3H]CP55940 binding to hCB1 receptor membranes", "conditions": "human cloned CB1 receptor", "method": "(§1) Chinese hamster ovary cells (CHO-K1), stably transfected with either hCB1 or hCB2, were washed two times with cold PBS, scraped from 500 cm^2 tissue culture plates, and pelleted by centrifugation at 1000×g for 10 min. The supernatant was discarded and the pellet was re-suspended in Tris assay buffer (50 mM Tris HCl, pH 7.8, containing 1.0 mM EGTA, 5.0 mM MgCl2, 10 μg/mL leupeptin, 10 μg/mL pepstatin A, 200 μg/mL bacitracin, and 0.5 μg/mL aprotinin), homogenized with a Polytron homogenizer (Brinkmann) at a setting of 1 for 20 sec and centrifuged at 38,000×g for 20 min at 4° C. The pellet was re-suspended in Tris assay buffer and aliquots of 1 mg protein/mL were stored at −80° C. for further use.\nBinding assays were performed by incubating 0.2-0.6 nM (34,000-100,000 dpm) of [^3H]CP55940 with membranes prepared from cells expressing cloned human CB1 or CB2 receptors in buffer A (50 mM Tris HCl, pH 7.0, 5.0 mM MgCl2, 1.0 mM EGTA and 1.0 mg/mL fatty acid free bovine serum albumin). […] The filters were rinsed 6 times with one mL of cold wash buffer (50 mM Tris HCl, pH 7.0, 5.0 mM MgCl2, 1.0 mM EGTA and 0.75 mg/mL fatty acid free bovine serum albumin), 30 μL of MicroScint 20 was added to each filter and the radioactivity on the filters determined by scintillation spectroscopy. Nonspecific binding was determined in the presence of 10 μM WIN55212-2. […]"}, "hCB1 [4]": {"molecular_target": "T2, hCB1", "test": "hCB1-mediated stimulation of [35S]GTPγS binding", "assay_type": "biochemical", "conditions": "read-out: in vitro CB1 receptor agonist potency (EC50)", "method": "as §1\nhCB1-mediated stimulation of [^35S]GTPγS binding was measured in a mixture containing 100-150 pM [^35S]GTPγS, 150 mM NaCl, […], 0.4 mM DTT, 1 mM EGTA, 1 mg/mL fatty acid free BSA, 25 μg of membrane protein and agonist in a total volume of 250 μL of buffer A in 96 well Basic Flashplates (Perkin Elmer). After incubation at room temperature for 2 hours the plates were centrifuged at 800×g at 4° C. for 5 min and the radioactivity bound to the membranes was determined by scintillation spectrometry using the Topcount (Perkin Elmer). […]"}, "Male Sprague-Dawley rats": {"system": "Male Sprague-Dawley rats", "test": "Neuropathic pain assay: L5 spinal nerve ligation, tactile sensitivity (von Frey)", "assay_type": "in vivo, rat", "conditions": "L5 SNL rats", "method": "Male Sprague-Dawley rats (120-250 g, Harlan Laboratories, Columbus, Ohio) were housed in pairs and allowed free access to food and water throughout the study. Room temperature and humidity were maintained at 21° C. and 70%, respectively. Nerve injury was produced with tight ligation of the left L5 spinal nerve (Kim and Chung, 1992; LaBuda and Fuchs, 2000a, 2000b, LaBuda, Donahue and Fuchs, 2001). Briefly, animals were placed in the prone position to access the left L4-L6 spinal nerves. Under magnification, approximately one third of the L6 transverse process was removed. The L5 spinal nerve was identified and carefully dissected free from the adjacent L4 spinal nerve and then tightly ligated using 6-0 silk suture. The wound was treated with an antiseptic solution, the muscle layer was sutured, and the wound was closed with wound clips. Sham-operated surgical controls were prepared in the same manner, but the L5 spinal nerve was not […]. All housing conditions and experimental procedures were performed in accordance with the ethical guidelines of the IASP and the Adolor Corporation Animal Care and Use Committee.\nSeven to ten animals per group were used for all behavioral assays. After a 7-10 day post-surgical recovery, animals were tested for baseline sensitivity to tactile stimulation of both hindpaws. Allodynic animals were defined as animals having a threshold of less than 7.5 grams of pressure applied to the injured hindpaw. Tactile sensitivity was evaluated using von Frey monofilaments before and after treatment. […] Thirty minutes after treatment, tactile sensitivity was evaluated. Five to seven days later, animals were tested using a different compound. Each animal was tested three times with different compounds. All behavioral testing was performed between 9:00 AM and 5:00 PM in a well-illuminated room with white background noise.\nAnimals were placed in a Plexiglas chamber (20 cm×10.5 cm×40.5 cm) and habituated for 15 minutes. The chamber was positioned on top of a mesh screen so that von Frey monofilaments could be presented to the plantar surfaces of both hindpaws. Measurements of tactile sensitivity for each hindpaw were obtained using the up/down method (Dixon, 1980) with seven von Frey monofilaments (0.04, 0.07, 0.16, 0.4, 1, 6, and 15 grams). Each trial started with a von Frey force of 0.4 g delivered to the right hindpaw and then the left hindpaw for approximately 1-2 sec each. If there was no withdrawal response, the next higher force was delivered. If there was a response, the next lower force was delivered. This procedure was performed until no response was made at the highest force (15 grams) or until four stimuli were administered following the initial response. The 50% paw withdrawal threshold for each paw was calculated using the following formula: [Xth]log=[vFr]log+ky where [vFr] is the force of the last von Frey filament used, k=0.2249 which is the average interval (in log units) between the von Frey monofilaments, and y is a value that depends upon the pattern of withdrawal responses (Dixon, 1980). […] Testing for tactile sensitivity was performed twice and the mean 50% withdrawal value assigned as the tactile sensitivity for the right and left paws for each animal.\nTactile sensitivity for both hindpaws before and after treatments were analyzed using one-way analysis of variance (ANOVA) followed by post-hoc comparisons (protected t-test) for group differences. An alpha level of 0.05 was used for all analyses."}, "[5]": {"conditions": "Table 3, 10 mg/kg, n = 7-8/group"}, "[6]": {"conditions": "Table 3, 2.5 mg/kg i.p., n = 7-8/group"}}, "note": "Read-outs that look alike come from different tables or passages of the source."}
{"smiles": "CCNC(=O)NCc1cccc(-c2ccc(C(C)(C)COCCC(=O)N3CCOCC3)cc2O)c1", "note": "[Compound 11, 1-{4′-[1,1-Dimethyl-2-(3-morpholin-4-yl-3-oxo-propoxy)-ethyl]-2′-hydroxy-biphenyl-3-yl-methyl}-3-ethyl-urea]", "values": [{"measurement": "% catalepsy @ 30 mg/kg", "setting": "Male ICR mice", "value": "6.65 ± 1.87", "unit": "%"}, {"measurement": "% catalepsy @ 100 mg/kg", "setting": "Male ICR mice", "value": "18.80 ± 3.33", "unit": "%"}]}
{"smiles": "CCCCOCC(C)(C)c1ccc(-c2ccccc2CNC(=O)NCC)c(O)c1", "note": "[Compound 12, 1-[4′-(2-Butoxy-1,1-dimethyl-ethyl)-2′-hydroxy-biphenyl-2-ylmethyl]-3-ethyl-urea]", "values": [{"measurement": "EC50", "setting": "hCB2 [1]", "value": 15.2, "unit": "nM"}, {"measurement": "Ki", "setting": "hCB2 [2]; human cloned CB2 receptor, read-out: Ki(CB2)", "value": 0.56, "unit": "nM"}, {"measurement": "Ki", "setting": "hCB1 [3]", "value": 1.6, "unit": "nM"}, {"measurement": "EC50", "setting": "hCB1 [4]", "value": 15.5, "unit": "nM"}]}
{"smiles": "CCCCOCC(C)(C)c1ccc(-c2cccc(CNC(=O)NCCC)c2)c(O)c1", "note": "[Compound 15, 1-[4′-(2-Butoxy-1,1-dimethyl-ethyl)-2′-hydroxy-biphenyl-3-ylmethyl]-3-propyl-urea]", "values": [{"measurement": "EC50", "setting": "hCB2 [1]", "value": 5.1, "unit": "nM"}, {"measurement": "Ki", "setting": "hCB2 [2]", "value": 0.4, "unit": "nM"}, {"measurement": "Ki", "setting": "hCB1 [3]", "value": 1.1, "unit": "nM"}, {"measurement": "EC50", "setting": "hCB1 [4]", "value": 29.1, "unit": "nM"}]}
{"smiles": "CCNC(=O)NCc1cccc(-c2ccc(C(C)(C)COCCOC)cc2O)c1", "note": "[Compound 17, 1-Ethyl-3-{2′-hydroxy-4′-[2-(2-methoxy-ethoxy)-1,1-dimethyl-ethyl]-biphenyl-3-ylmethyl}-urea]", "values": [{"measurement": "% catalepsy @ 30 mg/kg", "setting": "Male ICR mice", "value": "12.21 ± 2.79", "unit": "%"}, {"measurement": "% catalepsy @ 100 mg/kg", "setting": "Male ICR mice", "value": "47.93 ± 5.98", "unit": "%"}]}
{"smiles": "CCNC(=O)NCc1cccc(-c2ccc(C(C)(C)CCCCC(=O)N3CCOCC3)cc2O)c1", "note": "[Compound 20, 1-[4′-(1,1-Dimethyl-6-morpholin-4-yl-6-oxo-hexyl)-2′-hydroxy-biphenyl-3-yl-methyl]-3-ethyl-urea]", "values": [{"measurement": "Threshold", "setting": "Male Sprague-Dawley rats; Table 2, 10 mg/kg i.p., n = 8", "value": "12.16 ± 2.41", "unit": "g"}, {"measurement": "Threshold", "setting": "Male Sprague-Dawley rats; Table 2, 30 mg/kg i.p., n = 8", "value": "12.02 ± 2.54", "unit": "g"}, {"measurement": "Threshold", "setting": "Male Sprague-Dawley rats; Table 3, 3 mg/kg, n = 7-8/group", "value": "9.14 ± 3.36", "unit": "g"}, {"measurement": "Threshold", "setting": "Male Sprague-Dawley rats; [5]", "value": "16.69 ± 1.19", "unit": "g"}, {"measurement": "% catalepsy @ 30 mg/kg", "setting": "Male ICR mice", "value": "3.07 ± 1.15", "unit": "%"}, {"measurement": "% catalepsy @ 100 mg/kg", "setting": "Male ICR mice", "value": "5.05 ± 1.81", "unit": "%"}]}
{"smiles": "CCNC(=O)NCc1cccc(-c2ccc(C(C)(C)CCCNC(=O)C(C)(C)C)cc2O)c1", "note": "[Compound 35, N-(4-{3′-[(3-Ethyl-ureido)-methyl]-2-hydroxy-biphenyl-4-yl}-4-methyl-pentyl)-2,2-dimethyl-propionamide]", "values": [{"measurement": "Threshold", "setting": "Male Sprague-Dawley rats; [5]", "value": "10.96 ± 2.66", "unit": "g"}]}
{"smiles": "CC(C)(CCCCC(=O)N1CCOCC1)c1ccc(-c2cccc(CNC(=O)C3CCCO3)c2)c(O)c1", "note": "(centres unmarked) [Compound 41, Tetrahydrofuran-2-carboxylic acid [4′-(1,1-dimethyl-6-morpholin-4-yl-6-oxo-hexyl)-2′-hydroxy-biphenyl-3-ylmethyl]-amide]", "values": [{"measurement": "% catalepsy @ 30 mg/kg", "setting": "Male ICR mice", "value": "13.07 ± 2.85", "unit": "%"}, {"measurement": "% catalepsy @ 100 mg/kg", "setting": "Male ICR mice", "value": "58.78 ± 7.95", "unit": "%"}]}
{"smiles": "CC(C)(CCCCC(=O)N1CCOCC1)c1ccc(-c2cccc(CNS(C)(=O)=O)c2)c(O)c1", "note": "[Compound 71]", "values": [{"measurement": "% catalepsy @ 30 mg/kg", "setting": "Male ICR mice", "value": "3.38 ± 2.75", "unit": "%"}, {"measurement": "% catalepsy @ 100 mg/kg", "setting": "Male ICR mice", "value": "24.65 ± 3.36", "unit": "%"}]}
{"smiles": "Cc1c(C(=O)c2cccc3ccccc23)c2cccc3c2n1[C@H](CN1CCOCC1)CO3", "note": "[WIN+, WIN55,212-2, reference compound]", "values": [{"measurement": "Threshold", "setting": "Male Sprague-Dawley rats; [6]", "value": "15.03 ± 1.70", "unit": "g"}, {"measurement": "% catalepsy", "setting": "Male ICR mice; WIN @ 10 mg/kg i.p.", "value": "51.64 ± 2.69", "unit": "%"}]}
{"smiles": "Cc1c(C(=O)c2cccc3ccccc23)c2cccc3c2n1[C@@H](CN1CCOCC1)CO3", "note": "[WIN−, WIN55,212-3, reference compound]", "values": [{"measurement": "Threshold", "setting": "Male Sprague-Dawley rats; [6]", "value": "6.25 ± 1.19", "unit": "g"}]}
